# Assays:
# [1] = tested on: CLP-induced protein exudation into the alveolar space; assay: Mouse CLP model, protein leakage into BALF; assay type: in vivo; settings: intravenous infusion of 1 mg/kg
# Method: (§1) The CLP model is a well established clinically relevant model for human sepsis (Smeding et al., 2012; Amatullah et al., 2016). Male 8-12 week old C57/B16 mice (Jackson lab) were randomized to CLP or sham surgeries. In anesthetised mice, the cecum was exteriorized, ligated, and perforated. Control animals were exposed to sham surgery, in which the cecum was manipulated, but not ligated or punctured. After surgery, animals received daily fluid resuscitation (subcutaneous (s.c.) 50 ml/kg saline), antibiotic (intraperitoneal (i.p.) imipenem 25 mg/kg) and pain management (s.c. buprenorphine 0.2 mg/kg). Experiments were divided into 2 groups: (1) to assess 7-day survival, and (2) to identify a mechanism of action of a G9a inhibitor in vivo. All experimental mice were randomized and investigators were blinded to group assignment.
# Assessment of protective effects of UNC0642 on sepsis-induced vascular leakage: lung injury score and loss of alveolar-capillary membrane integrity with increased albumin and IgM exudation into bronchoalveolar lavage fluid (BALF) was assessed at 24 hrs post treatment.
# [2] = tested on: IL-1, IL-6, TNFα and IL811 transcript levels; assay: Quantitative RT-PCR of pro-inflammatory cytokines in zebrafish sepsis model; assay type: in vivo; settings: 3 dpf larvae, LPS 27 μg/ml (Salmonella) + 1 μM UNC0642, 24 h
# From the text: Quantitative reverse transcription polymerase chain reaction (RT-PCR) was used to assess relative expression of cytokines (an average of 3 trials, each trial with a pool of 20 larvae/treatment) and cellular junction proteins (an average of 3 trials, each trial with a pool of 20 larvae/treatment), using elongation factor 1 a (EF1a) as the housekeeping gene control. […] UNC0642 reverses LPS induced reduction in the transcript levels of cellular junction proteins, namely occludin a, occludin b and ZO-1. UNC0642 also upregulates cellular junction protein transcript levels of occludin b, claudin 5a, claudin 5b and claudin 2, potentially improving vascular stability.
# RNA extraction and cDNA synthesis. Wildtype zebrafish larvae (3 dpf) were exposed to Vehicle, LPS (27 μg/ml; LPS from Salmonella) or LPS+1 μM UNC0642 by static immersion for 24 h. Total RNA was extracted from these larvae (pool of 20 larvae/treatment) using the RNeasy extraction kit (Qiagen™, Mississauga, Ontario, Canada) and treated with DNase. The concentration of total RNA was determined spectrophotometrically at 260/280 nm using a NanoDrop™ spectrophotometer. […]
# PCR conditions. […] The primers are not listed, since suitable primers will be readily apparent to the skilled person.
# [3] = tested on: VE cadherin in HUVEC cells; assay: Immunostaining of VE cadherin in HUVEC cells; assay type: cell-based, human; settings: LPS 1 μg/ml + UNC0642 2.5 nM, 24 hours
# Method: HUVEC cells were seeded onto Lab-Tek II Chamber slide system at 1×10^6 cells/ml and grown to confluency. At 80-95% confluency they were treated with either the vehicle, LPS (1 μg/ml), LPS (1 μg/ml)+UNC0642 (2.5 nM) or UNC0642 (2.5 nM) for 24 hours. Then the following steps for immunostaining were performed • 1. Fixed the cells in 4% formaldehyde in warm PBS for 20 minutes at room temperature • 2. Aspirated the fixative • 3. Washed 3 times in PBS, 5 minutes each • 4. Blocked in blocking buffer for 2 hours at room temperature • 5. Aspirated the blocking buffer • 6. Added primary antibody VE cadherin (monoclonal VE Cad; cell signalling 2500S) at a dilution of 1:200 and incubated overnight at 4° C. • 7. Washed 3 times in PBS, 10 minutes each • 8. Added secondary antibody (goat anti-rabbit IgG Alexa Fluor 568; 1:1000 and Alexa Fluor 488 phalloidin; 1:1,000) and incubated for 2 hours at room temperature. • 9. Washed the cells 3 times in PBS, 10 minutes each at room temperature and mounted with a cover slip in 4′,6-diamidino-2-phenylindole (DAPI) Vectashield.
# Images were taken with a Zeiss™ confocal microscope. […] (FIG. 10)
# [4] = tested on: LPS-induced tailfin edema; assay: Tailfin edema in LPS-treated zebrafish larvae; assay type: in vivo
# Method: (§2) An LPS induced zebrafish sepsis model which mimics the hallmarks of human sepsis was developed (Philip et al., 2017). Zebrafish show varied susceptibility and responsiveness to LPS from different bacterial strains. Exposure of zebrafish larvae at 3 days post-fertilization (dpf) to two types of LPS (LPS from Escherichia coli 0111:B4 (Sigma) at 100 μg/ml for 5-6 hrs; or LPS from Salmonella at 27 μg/ml for 24 hrs) were both effective in inducing tail fin swelling, increased ROS production, increased vascular leakage and increased mortality.
# HUVEC monolayer = assay: Trans-endothelial electrical resistance (TEER) across HUVEC monolayer; assay type: cell-based, human; settings: LPS 1 μg/ml + UNC0642 2.5 nM, 24 h post treatment
# Method: To determine the functional significance of G9a inhibition in human cells, solute permeability and electrical resistance across a confluent HUVEC monolayer was assessed. For both experiments, HUVEC were seeded at 1×10^6 cells/ml on Matrigel™ coated 3-μm pore size transwell inserts in 24-well plates from BD Discovery Labware™ (catalog number 354575) and grown to confluency. The cells were then treated with either the vehicle, LPS (1 μg/ml) or LPS (1 μg/ml)+UNC0642 (2.5 nM).
# Assessment of trans-endothelial electrical resistance (TEER): At 24 h post treatment, trans endothelial electrical resistance across the HUVEC monolayer was measured using the Endohm-12 (WPI, Florida). UNC0642 improves transendothelial electrical resistance (TEER) which is also an indicator of vessel integrity and stability. (FIG. 11, Panel B)
# CLP-induced mortality = assay: Mouse cecal ligation and puncture (CLP) model of sepsis, survival; assay type: in vivo; settings: intravenous infusion of 1 mg/kg
# Method: as §1
# [5] = tested on: LPS-induced vascular leakage; assay: Vascular leakage (leaked red blood cells in tailfin) in LPS-treated zebrafish larvae; assay type: in vivo
# Method: as §2
# 3 dpf Tg (flk1:GFP; gata-1:Dsred) double transgenic larvae were exposed to Vehicle, LPS (100 μg/ml) or LPS+1 μM UNC0642 by static immersion for 6 h at 28.5° C. to induce endothe-lial dysfunction and the resulting leakage of red blood cells. The larvae were then imaged using a Leica fluorescence microscope (Leica Microsystems, Wetzlar, Germany). Red blood cells that leaked out into the tailfin region were quantified.
# 3 dpf larvae were exposed to LPS by immersion technique. […] Control larvae were exposed to egg water. Survival numbers were recorded and EC50s calculated. The percentage (%) of embryos showing vascular leakage was also recorded and 1050s calculated.
compound,measurement,setting,value
"COc1cc2c(NC3CCN(C(C)C)CC3)nc(N3CCC(F)(F)CC3)nc2cc1OCCCN1CCCC1 [UNC0642, 2-(4,4-Difluoropiperidin-1-yl)-6-methoxy-N-[1-(propan-2-yl)piperidin-4-yl]-7-(3-(pyrrolidin-1-yl)propoxy]quinazolin-4-amine]",Protein exudation into the alveolar space (total alveolar protein in the BALF),[1],reduced protein exudation
same,"LPS induced increases in transcript levels of pro-inflammatory cytokines IL-1, IL-6, TNFα and IL811",[2],significantly mitigates
same,LPS-caused decrease in level and patterning of VE cadherin,[3],partially rescued
same,LPS-induced tailfin edema,[4],significantly reduced
same,Transendothelial electrical resistance (TEER),HUVEC monolayer,improves
same,Reduction of CLP-induced absolute mortality,CLP-induced mortality,~50%
same,LPS-induced vascular leakage,"[5]; 3 dpf larvae, LPS 100 μg/ml + 1 μM UNC0642, 6 h, leaked red blood cells at tail fin",significantly reduced
same,Rescue of sepsis-associated vascular leakage,"[5]; comparison of UNC0642 and A366, zebrafish larvae, 27 μg/ml LPS, 24 h",able to rescue
